From patent US9598441B2, “Therapeutic compounds and methods” (Wayne State University, priority 2011, dated 2017)
pIC50: −log10 of the molar value. Each block holds one molecule with its values, some of them ahead of it. Residues, ends and D or L forms follow the SMILES beside them. *: point of attachment. Cbz = O=C(OCc1ccccc1)*; CH2F = FC*

Columns and labels:
[1] = test system: CARP-1, cyclin B1, Cdc20, Cdh1, APC-2, CDKIs, caspases, p38, Bcl2 family proteins; assay: Western blot of protein levels in treated cells; assay type: cell-based; conditions: for effect of pre-treatment on CFM-4-dependent loss of cyclin B1 and Cdc20 proteins (WB): pre-treatment before CFM-4
Method: (§1) Logarithmically growing cells were either untreated or treated with different agents for various time periods. The cells were lysed to prepare protein extracts. IP was carried out by incubating approximately 1 mg of the protein lysate with appropriate antibodies, and the immunoprecipitates or cell lysates were then electrophoresed on 9-12% SDS-polyacrylamide gels, and transferred to nitrocellulose membranes. The membranes were subsequently probed with various antibodies to determine expression/presence of the corresponding proteins. The cell growth inhibition was assessed by using MTT assay. Briefly, MTT (3-[4,5-Dimethylthiazol-2-yl]-2,5diphenyltetrazolium bromide) was dissolved in sterile 1×PBS to prepare a stock solution of 5 mg/ml. The solution was subsequently filtered through 0.2 μm filter and stored at 2-8° C. 4−5×10^2 cells were seeded in 96-well plates. After 72 h incubation with or without different agents, MTT stock solution was added to each culture being assayed to equal one tenth the original culture volume, followed by incubation of cells at 37° C. for another 2 h. At the end of the incubation, the media was removed and cells were treated with 100-200 μl of DMSO to solubilize the dye. The assessment of the live cells was derived by measuring the absorbance of the converted dye at wavelength of 570 nm.

[2] = molecular target: T1, CARP-1 binding with APC-2 (Homo sapiens, UniProt Q8IX12); assay: Fluorescence polarization assay (FPA) for inhibitors of CARP-1-APC-2 binding; conditions: fluorescein-tagged A-epitope peptide and Gst-APC-2 (685-754)
T1 construct: made in house; host or cells: E. coli BL-21 (DE3)
T1 sequence (Q8IX12 951-980 limits assumed): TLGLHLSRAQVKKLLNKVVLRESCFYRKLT
Method: Although, several formats for FP are indicated in the published literature (Inglese, J., Johnson, R. L., Simeonov, A., Xia, M., Zheng, W., Austin, C. P., Auld, D. S. (2007) Nat. Chem. Biol. 3(8), 466-79), the assays using 96-well or higher density plates are often and routinely employed. Optimization of FP for HTS involves several steps including the determination of Kd values, optimization of the buffer conditions, incubation and measurement times, and determination of the DMSO tolerance of the assay. Our goal was to minimize variation and to aim for adequate signal:background without adversely effecting the sensitivity of the assay. The FP polarization values in milli-polarization (mp) were measured to determine changes in the mp (Amp=mp of bound peptide mp of free peptide), the Kd and Ki constants of the binding. A 30-mer CARP-1 peptide that contained APC-2-binding epitope (A-epitope peptide) was commercially synthesized (US Biologicals, MA), labeled with fluorescein at the N-terminus, and purified to >98% purity. Increasing concentrations of A-epitope peptide were incubated with the indicated quantities of the affinity-purified Gst-APC-2 (685-754) protein in assay buffer containing 0.01% triton-X100. Affinity-purified Gst-NEMO (221-317) was included as a negative control. The Δmp was measured by excitation at 485 nm and emission at 538 nm.
The kinetics of CARP-1 binding with APC-2 was determined, and whether this binding could be exploited to identify SMIs of CARP-1-APC-2 interaction was investigated. For this purpose, a FPA utilizing the affinity-purified Gst-APC-2 (685-754) protein and the fluorescein-tagged A-epitope peptide was developed as detailed in methods. […] The signal to background ratio of 6 underscored robustness of this assay. Since, the quality (precision) and suitability of the FPA for HTS is usually defined by the Z′ factor (25, 40), we utilized the positive and negative control mean signals (μc+ and μc−, respectively) and their standard deviations (σc+ and σc−) to calculate the Z′ factor using the equation Z′=1−[3(σc++σc−)/(μc+−μc−)]. […]

[3] = molecular target: T2, His-TAT-HA-tagged A-epitope peptide [CARP-1 (951-980)] (Homo sapiens, UniProt Q8IX12); assay: In vitro binding of SMIs, immobilized A-epitope peptide pre-incubated with CFM; conditions: 100 μM, 30 min at RT; WB with anti-Gst
T2 construct: wild-type or scrambled His-TAT-HA-CARP-1 (951-980) peptides; made in house; host or cells: E. coli BL-21 (DE3)
T2 sequence (Q8IX12 951-980 limits assumed): T1 sequence (Q8IX12 951-980 limits assumed)
Method: (§2) The CFM-4 and 5 were separately dissolved in DMSO to obtain a stock of 20-50 mM. For in vitro binding experiments we utilized affinity-purified Gst-APC-2 (685-754) and His-TAT-HA-tagged A-epitope (WT) peptide. Ten nanogram of the His-TAT-HA-tagged A-epitope (WT) peptide was first allowed to bind with Ni-NTA beads (ProBond, InVitrogen), and then the reaction was incubated with DMSO (control), 100 μM CFM-4, or 100 μM CFM-5 for 30 min at RT. The reactions were then subjected to three washes with the binding buffer, followed by incubation with 10 ng of affinity-purified Gst-APC-2 (685-754) peptide for 30 min at RT. The reactions were washed again for three times with PBS, eluted and analyzed on a SDS-PAGE followed by western blotting (WB) with anti-Gst antibodies. A similar strategy was performed by immobilizing the Gst-APC-2 (685-754) peptide with Gst-beads. The beads were washed, incubated with DMSO or the CFMs, and the reactions washed again. The reactions were then allowed to incubate with affinity purified A-epitope peptide, and the complexes analyzed by SDS-PAGE followed by WB with anti HA-tag antibodies.

[4] = molecular target: T3, Gst-APC-2 (685-754) (Homo sapiens, UniProt Q9UJX6); assay: In vitro binding of SMIs, immobilized Gst-APC-2 pre-incubated with CFM; conditions: WB with anti HA-tag
T3 construct: immobilizing the Gst-APC-2 (685-754) peptide with Gst-beads; made in house; host or cells: E. coli BL-21 (DE3)
T3 sequence (Q9UJX6 685-754): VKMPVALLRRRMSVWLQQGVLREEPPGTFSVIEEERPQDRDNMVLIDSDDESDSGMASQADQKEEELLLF
Method: as §2

[5] = test system: caspase-3, caspase-8, caspase-9, caspase-2; assay: ApoAlert Caspase profiling plate, fluorescence-based; assay type: cell-based; conditions: pre-treatment before CFM-4
Method: For apoptosis ELISA assay, 4−5×10^2 cells were seeded in 96-well plates and treated essentially as indicated in the MTT assay above. Untreated as well as treated cells were lysed, and levels of mono and oligo-nucleosomal DNA fragments in the lysates were determined by measuring optical density of each sample at 405 nm and 495 nm wavelengths. […] For TUNEL labeling, the cells were treated with various agents, fixed, labeled and photographed essentially as detailed in immuno-localization protocols described before (Zhang, L., Levi, E., Majumder, P., Yu, Y., Aboukameel, A., Du, J., Xu, H., Mohammad, R. M., Hatfield, J. S., Wali, A., Adsay, V., Majumdar, A. P. N., and Rishi, A. K. (2007) Mol. Cancer. Ther. 6(5), 1661-1672). […] Cell lysates derived from vehicle DMSO (Control) or CFM-4-treated cells were added to the wells that had immobilized fluorogenic caspase-3, caspase-8, caspase-9, or caspase-2 substrates. The fluorescence released from the activated caspase-dependent cleavage of respective substrate was detected by a plate reader at the excitation and emission wavelengths of 380 nm and 460 nm, respectively.

[6] = test system: HBC, colon, prostate, pancreatic cancer, MPM and lymphoma cells; assay: MTT cell viability assay, cancer cells; assay type: cell-based, human; conditions: combination with CFM-4
Method: as §1
To test whether CFMs that interfere with CARP-1 binding with APC-2 modulate cell growth, HBC, colon, prostate, pancreatic cancer, MPM and lymphoma cells, as well as the immortalized, mammary epithelial MCF-10A cells were utilized. The cells were either treated with vehicle (DMSO) or various doses of the respective compound for a period of 72 h, and percent of live/viable cells for each compound was determined relative to the untreated controls as described in Methods.

Compound: CC(C)C[C@H](NC(=O)[C@H](Cc1ccccc1)NC(=O)c1cnccn1)B(O)O [velcade, Bortezomib, reference compound]
CARP-1 levels (WB) ([1]; 50 nM velcade 6 h or 24 h, 20 μM CFM-4 24 h): modest increase in CARP-1 levels
effect on CFM-4-dependent loss of cyclin B1 or Cdc20 proteins (WB) ([1]; 50 nM velcade combined with 20 μM CFM-4): failed to interfere

pIC50 [2]: 5.85
binding of immobilized A-epitope peptide with Gst-APC-2 (685-754) after pre-incubation with compound [3]: abrogated its binding
binding of immobilized Gst-APC-2 (685-754) with A-epitope peptide after pre-incubation with compound [4]: failed to abolish its binding
Compound: O=C1N(CCc2ccccc2)c2ccc(Br)cc2C12NN=C(c1ccccc1)S2 (stereo not shown) [CFM-5, 5-bromo-1-phenethyl-5′-phenyl-3′H-spiro[indoline-3,2′-[1,3,4]thiadiazol]-2-one]

Compound: COC(=O)CC[C@H](NC(=O)[C@H](CC(C)C)NC(=O)OCc1ccccc1)C(=O)N[C@@H](Cc1cnc[nH]1)C(=O)N[C@@H](CC(=O)OC)C(=O)CF [z-LEHD-fmk] (Cbz-LE(OMe)HD(OMe)-CH2F)
effect of pre-treatment on CFM-4-dependent activation of caspase 8 or caspase 9 [5]: abolished activation

Compound: CC[C@H](C)[C@H](NC(=O)OCc1ccccc1)C(=O)N[C@@H](CCC(=O)OC)C(=O)N[C@H](C(=O)N[C@@H](CC(=O)OC)C(=O)CF)[C@@H](C)O [z-IETD-fmk] (Cbz-IE(OMe)TD(OMe)-CH2F)
effect of pre-treatment on CFM-4-dependent activation of caspase 8 or caspase 9 [5]: abolished activation

Compound: CC[C@H](C)[C@H](NC(=O)[C@H](CCC(=O)O)NC(=O)[C@@H](NC(C)=O)C(C)C)C(=O)N[C@H](C=O)CC(=O)O [Ac-VEOD-CHO, reference compound] (Ac-VEID-aldehyde)
effect of pre-treatment on CFM-4-dependent loss of cyclin B1 and Cdc20 proteins (WB) [1]: blocked CFM-4-dependent loss

Compound: COC(=O)C[C@H](NC(=O)[C@H](C)NC(=O)[C@@H](NC(=O)OCc1ccccc1)C(C)C)C(=O)CF [zVAD-fMK, z-VAD-fmk, reference compound] (Cbz-Val-Ala-Asp(OMe)-CH2F)
effect of pre-treatment on CFM-4-dependent loss of cyclin B1 and Cdc20 proteins (WB) [1]: blocked CFM-4-dependent loss
effect on cell growth suppression by CFM-4 (MTT) [6]: blocked the ability of CFM-4 to suppress cell growth
